Experiments:
rat [1] = conditions: Subchronic oral toxicity in rodents, fischer, Feed, dose end: 11 week, group: systemic, systemic / in life observation / body weight / body weight
mouse = conditions: Carcinogenicity; b6c3f1; Oral; Feed; dose end: 101 week; group: systemic; systemic / in life observation / body weight / body weight + systemic / pathology microscopic / urinary bladder / inflammation
rat [2] = conditions: Carcinogenicity, fischer, Oral, Feed, dose end: 100 week, group: systemic
rabbit = conditions: Subchronic dermal toxicity, new zealand white, Topical, dose end: 13 week, group: systemic, systemic / in life observation / clinical signs / erythema + systemic / pathology gross / skin / [other] + systemic / pathology microscopic…
[3] = systemic / in life observation / body weight / body weight + systemic / pathology gross / eye / opacity

Row | SMILES | LEL (rat [1]) | LOAEL (rat [1]) | LEL (mouse) | LOAEL (mouse) | NEL (mouse) | NOAEL (mouse) | LEL (rat [2]; [3]) | NEL (rat [2]; [3]) | LOAEL (rat [2]; systemic / pathology microscopic / urinary bladder / hyperplasia) | NOAEL (rat [2]; systemic / pathology microscopic / urinary bladder / hyperplasia + systemic / in life observation / body weight / body weight + systemic / …) | NOAEL (rabbit)
1 | O=NN(c1ccccc1)c1ccccc1 [N-Nitrosodiphenylamine] | 200 mg/kg/day | 200 mg/kg/day | 347 mg/kg/day | 347 mg/kg/day | < 347 mg/kg/day | < 347 mg/kg/day | 50 mg/kg/day | < 50 mg/kg/day | 200 mg/kg/day | 50 mg/kg/day | –
2 | O=C([O-])c1ccc2ccccc2c1.O=C([O-])c1ccc2ccccc2c1.[Zn+2] [Zinc naphthenate] | – | – | – | – | – | – | – | – | – | – | < 100 mg/kg/day

Source: EPA's ToxRefDB 2
